Patent US20080014199A1, “Assessing Cancer And Vimentin” (MAYO FOUNDATION FOR MEDICAL EDUCATION AND RESEARCH, priority 2006, published 2008)
“Also recorded” adds a separate entry of the source. No end group written: not given here. fluorescein = fluorescein label conjugated to the peptide

Columns and labels:
CLL B cells = assay: Immunofluorescence staining of CLL B cell cytospins with FPSAHFL-displaying phage or fluorescein labelled polypeptide; type: binding, human; details: phage plus fluorescent anti-phage antibodies or fluorescein-labelled polypeptide
Text: FIG. 2 contains fluorescence photomicrographs showing binding of the FPSAHFL (SEQ ID NO:2) polypeptide to CLL B cells. CLL B cells were placed on slides by cytospining and were stained with phages displaying the FPSAHFL (SEQ ID NO:2) polypeptide and FITC labeled anti-phage antibody (A and D) or were stained directly with fluorescein conjugated FPSAHFL (SEQ ID NO:2) polypeptide (B, C, and E).
Binding of the FPSAHFL (SEQ ID NO:2) polypeptide to CLL B cells was investigated using immunofluorescence. Cytospins of 10^5 CLL B cells (see, Example 1) were prepared and incubated for 20 minutes at room temperature with phages displaying FPSAHFL (SEQ ID NO:2; 10^8 pfu). The cells were then washed twice with PBS and incubated for 15 minutes at room temperature with 10 μg of mouse anti-M13 phage antibodies (New England Biolabs). The cells were stained for 15 minutes at room temperature with 2 μg of fluorescein isothiocyanate (FITC) labelled secondary anti-mouse antibodies (Vector Laboratories Inc, Burlingame, Calif., USA). Non-displaying M13 phages were used as a control (New England Biolabs) and co-staining with 4′-6-Diamidino-2-phenylindole (DAPI) was used to identify cells. […] The purity of the polypeptide preparation (>99.9%) was assessed by mass spectrometry and high performance liquid chromatography using internal standards.

vimentin [1] = target: T1, vimentin (Homo sapiens, UniProt P08670); assay: Immunoprecipitation of CLL B cell lysates with FPSAHFL phage and anti-phage antibodies, Western blotting, nano LC-MS/MS target identification; type: binding
T1 construct: CLL B cell lysates were immunoprecipitated using phage and anti-phage antibodies; endogenous in cells; host or cells: primary CLL B cells (patient leukemic cells), total protein lysate
T1 sequence (P08670 whole entry): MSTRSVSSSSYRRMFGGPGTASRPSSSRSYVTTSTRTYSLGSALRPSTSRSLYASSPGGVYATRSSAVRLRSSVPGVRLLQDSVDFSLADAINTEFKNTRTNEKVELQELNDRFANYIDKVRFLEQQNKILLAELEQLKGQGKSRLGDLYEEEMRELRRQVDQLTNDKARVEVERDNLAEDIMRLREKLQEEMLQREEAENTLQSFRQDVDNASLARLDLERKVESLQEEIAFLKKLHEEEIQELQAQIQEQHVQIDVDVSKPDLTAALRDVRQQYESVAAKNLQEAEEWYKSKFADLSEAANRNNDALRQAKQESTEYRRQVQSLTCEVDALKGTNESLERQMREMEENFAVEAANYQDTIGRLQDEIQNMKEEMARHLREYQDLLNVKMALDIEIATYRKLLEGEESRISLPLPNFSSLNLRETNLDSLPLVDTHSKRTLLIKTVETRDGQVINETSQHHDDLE
Description: (§1) To identify FPSAHFL (SEQ ID NO:2) polypeptide targets, CLL B cell lysates were immunoprecipitated using phage and anti-phage antibodies. Total protein extracts were prepared from primary leukemic cells (see, Example 1) by lysing cells in cold lysis buffer (30 mM Tris-HCl, pH 7.4; 150 mM NaCl; 1% glycerol (v/v); 1% Triton X-100 (v/v); and 2 mM EDTA) in the presence of phosphatase inhibitors (100 mM NaF, 10 mM Na4P2O4, 1 mM Na2VO4), and protease inhibitors (10 μg/mL Leupeptin, 10 μg/mL Pepstatin A, and 1 mM phenylmethylsulfonyl fluoride (PMSF)). After centrifugation to remove cell debris, protein extracts were immunoprecipitated overnight at 4° C. on a rotator with phages displaying FPSAHFL (SEQ ID NO:2; 10^11 pfu[…]), anti-M13 phage antibodies and 40 μL goat anti-mouse IgG-sepharose 4B beads (Zymed, San Francisco, Calif., USA), according to the manufacturer's instructions. The beads were washed three times with lysis buffer, resuspended into a loading buffer and subjected to SDS-PAGE (5%-15%) under reducing conditions. The polypeptide was visualized by Coomassie blue or silver staining. To confirm that the immunoprecipitated polypeptide was indeed the target for FPSAHFL (SEQ ID NO:2) phage, Western blotting was performed using staining with FPSAHFL (SEQ ID NO:2) phage and anti-M13 phage antibodies. Non-displaying phage were used as a control. […]

unmutated CLL B cells = assay: Subtraction biopanning with phage display polypeptide library on unmutated versus mutated CLL B cells; type: binding, human
Description: Phages displaying IgVH mutational status-specific polypeptides were isolated. 10^11 plaque forming units (pfu) of PDPL Ph.D.-7 (New England Biolabs, Ipswich, Mass.) were added to 10^6 unmutated CLL B cells suspended in 1 mL of phosphate buffered saline (PBS) containing 0.5% bovine serum albumin (BSA), and the mixture was incubated at room temperature for 1 hour with gentle rocking (FIG. 1A). The cells with attached phages were spun down and washed three times with PBS containing 0.5% BSA (FIG. 1B). The attached phages were then eluted for 20 minutes by adding 1 mL of elution buffer (1% BSA, 0.2 M Glycine-HCl, pH 2.2; FIG. 1C). The elution buffer was neutralized with 0.15 mL of 1 M Tris-HCl (pH 9.1). The eluted phages were precipitated by adding 0.2 mL of a solution containing 20% (w/v) polyethylene glycol 8,000 (Sigma, Saint Louis, Mo.) and 2.5 M NaCl. The eluted phages were then added to a suspension of 10^6 mutated CLL B cells in PBS with 0.5% BSA and incubated with gentle rocking for 40 minutes. The cells with bound phages (FIG. 1D) were spun down, leaving the supernatant containing unbound phages. This latter step was repeated four times to ensure complete subtraction of phages binding to mutated CLL B cells. The unbound phages in the supernatant were titered, amplified and purified as described elsewhere (Nowakowski et al., Stem Cells, 22(6):1030-8 (2004); FIG. 1E). […]

vimentin [2] = target: T2, vimentin (human (CLL patients), UniProt P08670 2-466); assay: immunoprecipitation from CLL B cell lysate with phage and anti-M13 antibodies; Western blot with phage
T2 construct: Endogenous protein from total protein extracts of CLL patient cells; It ran on SDS-PAGE under reducing conditions for the Western blot; also called 56 kDa band; immunoprecipitated polypeptide
T2 sequence (P08670 2-466 limits assumed): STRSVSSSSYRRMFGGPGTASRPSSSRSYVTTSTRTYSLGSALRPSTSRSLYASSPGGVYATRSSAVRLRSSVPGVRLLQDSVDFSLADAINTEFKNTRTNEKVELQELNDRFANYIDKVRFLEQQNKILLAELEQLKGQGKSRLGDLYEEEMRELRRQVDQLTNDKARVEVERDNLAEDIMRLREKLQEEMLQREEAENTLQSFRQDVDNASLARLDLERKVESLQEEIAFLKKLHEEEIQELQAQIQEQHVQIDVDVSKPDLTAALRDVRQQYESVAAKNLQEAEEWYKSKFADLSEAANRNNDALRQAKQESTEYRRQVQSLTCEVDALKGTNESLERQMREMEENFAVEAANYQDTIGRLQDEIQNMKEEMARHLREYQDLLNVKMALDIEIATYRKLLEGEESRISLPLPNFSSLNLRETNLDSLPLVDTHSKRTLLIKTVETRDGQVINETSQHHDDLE
Description: as §1, with “Na₄P₂O₄,” for “Na4P2O4,”, “Na₂VO₄),” for “Na2VO4),”, “10¹¹” for “10^11”

Molecule	Cellular localization of binding (pattern of staining) (CLL B cells)	Target of the polypeptide identified (vimentin [1]; in-gel trypsin digestion, nano LC-MS/MS, Mascot and Sequest)	Band immunoprecipitated from CLL polypeptides (vimentin [1]; phage bearing the polypeptide and anti-phage antibodies, binding confirmed by Western blotting) [kDa]	Percentage of sequenced single phage colonies encoding the polypeptide (unmutated CLL B cells; fourth round of biopanning) [%]	Percentage of sequenced single phage colonies encoding the polypeptide (unmutated CLL B cells; third round of subtraction biopanning) [%]	binding result (vimentin [2])
FPSAHFL (fluorescein-FPSAHFL) [also synthesized and fluorescein labelled at the N terminus]	localized within the cytoplasm; also recorded: cytoplasmic pattern of staining	vimentin	56	34	20	
FPSAHFL (peptide, not shown: large carriers, also: displayed on M13 phage coat protein, fusion end not given here, 7-mer selected from the Ph.D.-7 phage display library) [phage displaying the FPSAHFL (SEQ ID NO:2) polypeptide]						binds
